Assay results reported in patent publication US20070219234A1, “Thienopyridine Derivatives” (priority 2004, published 2007).

Legend:
[1] = tested on: ST2 cells; assay: Osteoblast differentiation test (alkaline phosphatase activity); type: cell-based; settings: Mus musculus, ST-2, 96 h; at 0.03 μg/mL; culturing for four days; control group (0.1% DMSO) = 100%; read-out: alkaline phosphatase activity increase rate
Experimental: ST2 cells (available from Institute of Physical and Chemical Research) which are stroma cells derived from mouse marrow were used. In this test, α-MEM medium (available from GIBCO BRL Cat. No. 10370-021) with which 10% (v/v) inactivated fetal bovine serum (available from Hyclone Company, FBS) and 1% (v/v) Penicillin-Streptomycin, Liquid (available from GIBCO BRL Cat. No. 15140-122) are mixed (hereinbelow abbreviated as 10% -FBS-αMEM) was used. Every culture in this test was conducted in a CO2 incubator (37° C., 95% humidity, 5% CO2).
The cells mentioned above were harvested with 2 mL of 0.25% trypsin solution (available from GIBCO BRL Cat. No. 15050-065) and after they were dispersed by adding 10 mL of 10% -FBS-αMEM, the cells were collected by centrifugal separation (25° C., 800 rpm, 5 minutes). A cell suspension containing 40,000 cells/mL was prepared from the collected cells using 10% -FBS-αMEM.
The cell suspension was dispensed to the wells of a 96 well microplate (Falcon company) in an amount of 100 μL per well so as to achieve 4,000 cells/well and cultured for 24 hours. Compounds were dispensed to the wells in final concentrations of 0.01, 0.03, 0.1, 0.3 μg/ml except the following control group. DMSO was dispensed to the wells of the control group in a final concentration of 0.1% (v/v). Alkaline phosphatase (ALP) activity was measured for each group after culturing for four days.
The measurement of ALP activity was performed as follows. That is, after the whole medium was removed from each well of the culturing plate, each well was washed twice by dispensing and removing 100 μL of Dulbecco's phosphate buffer (available from GIBCO BRL Cat. No. 14190-144). Cell lysing solution containing 10 mM MgCl2 and 2%(v/v) TritonX-100 (Sigma company) was prepared and 50 μL/well of the cell lysing solution was dispensed and the mixture was stirred at room temperature for five minutes. An ALP substrate solution containing 50 mM of diethanolamine (Wako Pure Chemical Industries, Ltd. Cat. No. 099-03112) and 20 mM of […] (Wako Pure Chemical Industries, Ltd. Cat. No. 147-02343) was prepared and 50 μL/well of the ALP substrate solution was dispensed and after allowing to stand at room temperature for 10 minutes, absorbance was measured using a microplate reader (Bio-rad company). Alkaline phosphatase activity increase rate (%) in the group blended with test compounds was calculated assuming the observed value of the control group of each plate to be 100% and evaluated as the osteoblast differentiation promoting activity.

[2] = tested on: cells from femurs and tibias of ICR mice; assay: Osteoclast formation suppression test (TRAP activity); type: cell-based, mouse; settings: 20 nM active form vitamin D3; compounds 0.01-0.3 μg/ml; culturing for five days
Experimental: 18 day-old ICR mice were purchased from Japan SLC, Inc. and used in the following experiments. The mice were sacrificed by cervical dislocation and the right and left femurs and tibias were extracted. After the tissue around the extracted femurs and tibias was removed, they were finely minced with scissors. 10 mL of 15%-FBS-αMEM was added to the minced femurs and tibias and the supernatant was collected after agitation for one minute and filtering with a cell strainer (Becton Dickinson company). A cell suspension containing 500,000 cells/mL was prepared with 15%-FBS-αMEM. The cell suspension was dispensed to the wells of a 96 well microplate (Falcon company) in an amount of 100 μL per well so as to achieve 50,000 cells/well and cultured for 24 hours. Active form vitamin D3 (Sigma company, Cat.No.D1530) was dispensed to the wells in final concentrations of 20 nM. Compounds were dispensed to the wells in final concentrations of 0.01, 0.03, 0.1, 0.3 μg/ml except the following control group. DMSO was dispensed to the wells of the control group in a final concentration of 0.1% (v/v). Tartrate-resistant acid phosphatase (TRAP) activity was measured for each group after culturing for five days.
The measurement of TRAP activity was performed as follows. That is, after the whole medium was removed from each well of the culturing plate, each well was washed twice by dispensing and removing 100 μL of Dulbecco's phosphate buffer (available from GIBCO BRL Cat. No. 14190-144). After retaining with a mixture of acetone-ethanol (1:1) for one minute, the retention liquid was removed and the wells were stained at 37° C. with Leukocyte acid phosphatase kit (Sigma company, Cat. No. 387-A) for 30 minutes. The staining solution was removed, then 100 μL of 10% sodium dodecylsulfate (Wako Pure Chemical Industries, Ltd. Cat. No. 191-07145) was dispensed and the mixture was stirred for five minutes, and then absorbance was measured using a microplate reader (Bio-rad company). TRAP activity decrease rate (%) in the group blended with test compounds was calculated assuming the observed value of the control group of each plate to be 100% and evaluated as the osteoclast formation suppression activity.

Compound | activity at 0.03 µg/mL [1] | melting point | osteoclast formation suppression effect (TRAP activity decrease rate) [2]
NC(=O)c1sc2nccc(N3CCCC(CO)C3)c2c1N (stereo not drawn) [Example 17, 3-amino-4-[3-(hydroxymethyl)piperidin-1-yl]thieno[2,3-b]pyridine-2-carboxamide] | > 150% | 125 to 130 °C | –
NC(=O)c1sc2nccc(N3CCCN(c4ccc5c(c4)OCCO5)CC3)c2c1N [Example 72, 3-amino-4-[4-(2,3-dihydro-1,4-benzodioxin-6-yl)-1,4-diazepan-1-yl]thieno[2,3-b]pyridine-2-carboxamide] | > 150% | 104 to 107 °C | excellent osteoclast formation suppression effect
NC(=O)c1sc2nccc(N3CCCN(c4ccc(F)cc4)CC3)c2c1N [Example 76, 3-amino-4-[4-(4-fluorophenyl)-1,4-diazepan-1-yl]thieno[2,3-b]pyridine-2-carboxamide] | > 150% | 203 to 205 °C | –
CC(=O)c1ccc(N2CCCN(c3ccnc4sc(C(N)=O)c(N)c34)CC2)cc1 [Example 94, 4-[4-(4-acetylphenyl)-1,4-diazepan-1-yl]-3-aminothieno [2,3-b]pyridine-2-carboxamide] | > 150% | 279 to 282 °C (dec.) | excellent osteoclast formation suppression effect
Cc1ccc(N2CCCN(c3ccnc4sc(C(N)=O)c(N)c34)CC2)cc1 [Example 77, 3-amino-4-[4-(4-methylphenyl)-1,4-diazepan-1-yl]thieno[2,3-b]pyridine-2-carboxamide] | > 150% | 175 to 176 °C | –
CSc1ccc(N2CCCN(c3ccnc4sc(C(N)=O)c(N)c34)CC2)cc1 [Example 64, 3-amino-4-{4-[4-(methylthio)phenyl]-1,4-diazepan-1-yl}thieno[2,3-b]pyridine-2-carboxamide] | > 150% | 186 to 188 °C | –
CCOc1ccc(N2CCCN(c3ccnc4sc(C(N)=O)c(N)c34)CC2)cc1 [Example 83, 3-amino-4-[4-(4-ethoxyphenyl)-1,4-diazepan-1-yl]thieno[2,3-b]pyridine-2-carboxamide] | > 150% | 181 to 183 °C | excellent osteoclast formation suppression effect
Cc1cccc(N2CCCN(c3ccnc4sc(C(N)=O)c(N)c34)CC2)c1 [Example 65, 3-amino-4-[4-(3-toluyl)-1,4-diazepan-1-yl]thieno[2,3-b]pyridine-2-carboxamide] | > 150% | 209 to 212 °C | excellent osteoclast formation suppression effect
Cc1ccc(N2CCCN(c3ccnc4sc(C(N)=O)c(N)c34)CC2)cc1C [Example 84, 3-amino-4-[4-(3,4-dimethylphenyl)-1,4-diazepan-1-yl]thieno[2,3-b]pyridine-2-carboxamide] | > 150% | 195 to 197 °C | –
COc1ccc(N2CCCN(c3ccnc4sc(C(N)=O)c(N)c34)CC2)cc1 [Example 58, 3-amino-4-[4-(4-methoxyphenyl)-1,4-diazepan-1-yl]thieno[2,3-b]pyridine-2-carboxamide] | > 150% | 206 to 208 °C | –
C[S+]([O-])c1ccc(N2CCCN(c3ccnc4sc(C(N)=O)c(N)c34)CC2)cc1 (stereo not drawn) [Example 66, 3-amino-4-{4-[4-(methylsulfinyl)phenyl]-1,4-diazepan-1-yl}thieno[2,3-b]pyridine-2-carboxamide] | > 150% | 153 to 157 °C | excellent osteoclast formation suppression effect
NC(=O)c1sc2nccc(N3CCCN(c4nccs4)CC3)c2c1N [Example 97, 3-amino-4-[4-(1,3-thiazol-2-yl)-1,4-diazepan-1-yl]thieno[2,3-b]pyridine-2-carboxamide] | > 150% | 243 to 245 °C | excellent osteoclast formation suppression effect
CCc1ccc(N2CCCN(c3ccnc4sc(C(N)=O)c(N)c34)CC2)cc1 [Example 93, 3-amino-4-[4-(4-ethylphenyl)-1,4-diazepan-1-yl]thieno[2,3-b]pyridine-2-carboxamide] | > 150% | 186 to 188 °C | –
NC(=O)c1sc2nccc(N3CCCN(c4ccc([N+](=O)[O-])cc4)CC3)c2c1N [Example 59, 3-amino-4-[4-(4-nitrophenyl)-1,4-diazepan-1-yl]thieno[2,3-b]pyridine-2-carboxamide] | > 150% | 244 to 248 °C | –
NC(=O)c1sc2nccc(N3CCSCC3)c2c1N [Example 24, 3-amino-4-thiomorpholin-4-ylthieno[2,3-b]pyridine-2-carboxamide] | > 150% | 255 to 258 °C | –
COc1ccc(N2CCCN(c3ccnc4sc(C(N)=O)c(N)c34)CC2)cn1 [Example 98, 3-amino-4-[4-(6-methoxypyridin-3-yl)-1,4-diazepan-1-yl]thieno[2,3-b]pyridine-2-carboxamide] | > 150% | 170 to 172 °C | –
COc1cccc(N2CCCN(c3ccnc4sc(C(N)=O)c(N)c34)CC2)c1 [Example 68, 3-amino-4-[4-(3-methoxyphenyl)-1,4-diazepan-1-yl]thieno[2,3-b]pyridine-2-carboxamide] | > 150% | 193 to 195 °C | –
CN(C)c1ccc(N2CCCN(c3ccnc4sc(C(N)=O)c(N)c34)CC2)cc1 [Example 74, 3-amino-4-{4-[4-(dimethylamino)phenyl]-1,4-diazepan-1-yl}thieno[2,3-b]pyridine-2-carboxamide] | > 150% | 174 to 176 °C | –
NC(=O)c1sc2nccc(N3CC[C@@H]4CCCC[C@@H]4C3)c2c1N (relative stereo) [Example 29, 3-amino-4-(cis-perhydroisoquinolin-2-yl)thieno[2,3-b]pyridine-2-carboxamide] | > 150% | 224 to 226 °C | –
CC1CCCN(c2ccnc3sc(C(N)=O)c(N)c23)C1 (stereo not drawn) [Example 16, 3-amino-4-(3-methylpiperidin-1-yl)thieno[2,3-b]pyridine-2-carboxamide] | > 150% | 201 to 204 °C | –
NC(=O)c1sc2nccc(N3CCCCC3)c2c1N [Example 14, 3-amino-4-piperidin-1-ylthieno[2,3-b]pyridine-2-carboxamide] | > 150% | 191 to 192 °C | –
